Source: ChEMBL document CHEMBL6153034, “Synthesis of dolutegravir derivatives modified by 1,2,3-triazole structure and their anti-inflammatory activity in LPS-induced BV2 cells” (Bioorg Med Chem Lett, 2025)
Calls of active or inactive are those of the source.

Experiments:
[1] = target: Signal transducer and activator of transcription 3 (Mus musculus) (UniProt P42227); assay: Inhibition of STAT3 phosphorylation at Tyr705 residue in LPS-induced mouse BV-2 cells at 5 to 10 uM preincubated for 2 hrs followed by LPS addition and measured after 3 hrs by Western blot analysis; assay type: cell-based; conditions: dose 5-10 µM, time 5.0 hrs
BV-2 [2] = assay: Antiinflammatory activity in LPS-induced mouse BV-2 cells assessed as decrease in IL-6 production preincubated for 2 hrs followed by LPS addition and measured after 24 hrs by qRT-PCR analysis; assay type: functional, cell-based; conditions: dose 5-10 µM, time 26.0 hrs
BV-2 [3] = assay: Inhibition of LPS-induced nuclear translocation of p-STAT1 in mouse BV-2 cells at 10 uM preincubated for 2 hrs followed LPS addition and measured after 3 hrs by Western blot analysis; assay type: functional, cell-based; conditions: time 5.0 hrs
BV-2 [4] = assay: Inhibition of LPS-induced nuclear translocation of p-STAT3 in mouse BV-2 cells at 10 uM preincubated for 2 hrs followed LPS addition and measured after 3 hrs by Western blot analysis; assay type: functional, cell-based; conditions: time 5.0 hrs
[5] = Acute toxicity in female Kunming mouse assessed as histopathological changes in spleen at 250 mg/kg administered via gavage by H and E staining based analysis; assay type: organism-based; conditions: in vivo, po
[6] = Acute toxicity in female Kunming mouse assessed as histopathological changes in lung at 250 mg/kg administered via gavage by H and E staining based analysis; assay type: organism-based; conditions: in vivo, po
[7] = Acute toxicity in female Kunming mouse assessed as effect on GOT level in blood at 250 mg/kg administered via gavage by biochemical analysis; assay type: organism-based; conditions: in vivo, po
[8] = Acute toxicity in female Kunming mouse assessed as effect on organ coefficient of kidney at 250 mg/kg administered via gavage; assay type: organism-based; conditions: in vivo, po
BV-2 [9] = assay: Antiinflammatory activity in LPS-induced mouse BV-2 cells assessed as downregulation of iNOS mRNA expression level at 5 to 10 uM preincubated for 2 hrs followed by LPS addition and measured after 6 hrs by qRT-PCR analysis; assay type: functional, cell-based; conditions: dose 5-10 µM, time 8.0 hrs
[10] = Acute toxicity in female Kunming mouse assessed as effect on GPT level in blood at 250 mg/kg administered via gavage by biochemical analysis; assay type: organism-based; conditions: in vivo, po
[11] = Acute toxicity in male Kunming mouse assessed as histopathological changes in liver at 250 mg/kg administered via gavage by H and E staining based analysis; assay type: organism-based; conditions: in vivo, po
[12] = target: T1, Signal transducer and activator of transcription 1 (Mus musculus) (UniProt P42225); assay: Inhibition of STAT1 phosphorylation at Tyr701 residue in LPS-induced mouse BV-2 cells at 5 to 10 uM preincubated for 2 hrs followed by LPS addition and measured after 3 hrs by Western blot analysis; assay type: cell-based; conditions: dose 5-10 µM, time 5.0 hrs
T1 sequence (whole entry): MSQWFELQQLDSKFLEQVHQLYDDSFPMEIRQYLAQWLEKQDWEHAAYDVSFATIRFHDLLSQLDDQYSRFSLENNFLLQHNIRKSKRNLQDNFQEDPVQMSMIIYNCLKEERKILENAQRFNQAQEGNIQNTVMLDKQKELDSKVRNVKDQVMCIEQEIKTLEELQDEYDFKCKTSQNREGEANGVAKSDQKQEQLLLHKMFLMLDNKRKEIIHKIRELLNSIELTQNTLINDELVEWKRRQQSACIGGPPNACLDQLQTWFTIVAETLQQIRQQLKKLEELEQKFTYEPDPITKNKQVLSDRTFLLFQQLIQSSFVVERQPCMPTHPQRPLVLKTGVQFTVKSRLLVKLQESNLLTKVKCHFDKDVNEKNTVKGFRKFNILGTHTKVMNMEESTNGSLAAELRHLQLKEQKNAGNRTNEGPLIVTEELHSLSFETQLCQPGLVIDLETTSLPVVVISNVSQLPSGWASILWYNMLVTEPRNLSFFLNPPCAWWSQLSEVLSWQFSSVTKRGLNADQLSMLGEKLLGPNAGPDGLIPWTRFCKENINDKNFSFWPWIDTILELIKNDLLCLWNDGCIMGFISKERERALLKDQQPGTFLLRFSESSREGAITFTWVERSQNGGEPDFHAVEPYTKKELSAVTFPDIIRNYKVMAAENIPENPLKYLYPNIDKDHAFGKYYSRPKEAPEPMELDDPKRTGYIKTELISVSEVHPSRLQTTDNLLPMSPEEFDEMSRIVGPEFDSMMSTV

[13] = Acute toxicity in male Kunming mouse assessed as effect on organ coefficient of kidney at 250 mg/kg administered via gavage; assay type: organism-based; conditions: in vivo, po
BV-2 [14] = assay: Inhibition of LPS-induced nuclear translocation of p-STAT1 in mouse BV-2 cells at 10 uM preincubated for 2 hrs followed LPS addition and measured after 3 hrs by DAPI staining based immunofluorescence assay; assay type: functional, cell-based; conditions: time 5.0 hrs
BV-2 [15] = assay: Antiinflammatory activity in LPS induced mouse BV-2 cells assessed as inhibition of NO production by Griess reagent based assay; assay type: functional, cell-based
BV-2 [16] = assay: Antiinflammatory activity in LPS induced mouse BV-2 cells assessed as downregulation of TNF-alpha mRNA expression level preincubated for 2 hrs followed by LPS addition and measured after 24 hrs by qRT-PCR analysis; assay type: functional, cell-based; conditions: dose 5-10 µM, time 26.0 hrs
[17] = Acute toxicity in female Kunming mouse assessed as effect on body weight at 250 mg/kg administered via gavage for 14 days; assay type: organism-based; conditions: in vivo, po, 336 h, time 14 day
[18] = Acute toxicity in female Kunming mouse assessed as histopathological changes in heart at 250 mg/kg administered via gavage by H and E staining based analysis; assay type: organism-based; conditions: in vivo, po
[19] = Acute toxicity in male Kunming mouse assessed as effect on organ coefficient of lung at 250 mg/kg administered via gavage; assay type: organism-based; conditions: in vivo, po
[20] = Acute toxicity in male Kunming mouse assessed as effect on organ coefficient of liver at 250 mg/kg administered via gavage; assay type: organism-based; conditions: in vivo, po
BV-2 [21] = assay: Antiinflammatory activity in LPS induced mouse BV-2 cells assessed as downregulation of IL-1beta mRNA expression level preincubated for 2 hrs followed by LPS addition and measured after 24 hrs by qRT-PCR analysis; assay type: functional, cell-based; conditions: dose 5-10 µM, time 26.0 hrs
[22] = Acute toxicity in male Kunming mouse assessed as effect on organ coefficient of heart at 250 mg/kg administered via gavage; assay type: organism-based; conditions: in vivo, po
BV-2 [23] = assay: Antiinflammatory activity in LPS-induced mouse BV-2 cells assessed as downregulation of COX-2 protein expression level preincubated for 2 hrs followed by LPS addition and measured after 24 hrs by Western blot analysis; assay type: functional, cell-based; conditions: dose 5-10 µM, time 26.0 hrs
[24] = Acute toxicity in female Kunming mouse assessed as effect on organ coefficient of lung at 250 mg/kg administered via gavage; assay type: organism-based; conditions: in vivo, po
BV-2 [25] = assay: Inhibition of LPS-induced nuclear translocation of p-STAT3 in mouse BV-2 cells at 10 uM preincubated for 2 hrs followed LPS addition and measured after 3 hrs by DAPI staining based immunofluorescence assay; assay type: functional, cell-based; conditions: time 5.0 hrs
BV-2 [26] = assay: Antiinflammatory activity in LPS induced mouse BV-2 cells assessed as NO production at 1 uM by Griess reagent based assay relative to control
BV-2 [27] = assay: Antiinflammatory activity in LPS induced mouse BV-2 cells assessed as downregulation of IL-6 mRNA expression level preincubated for 2 hrs followed by LPS addition and measured after 24 hrs by qRT-PCR analysis; assay type: functional, cell-based; conditions: dose 5-10 µM, time 26.0 hrs

Signal transducer and activator of transcription 3 (Mus musculus), sequence (P42227 whole entry): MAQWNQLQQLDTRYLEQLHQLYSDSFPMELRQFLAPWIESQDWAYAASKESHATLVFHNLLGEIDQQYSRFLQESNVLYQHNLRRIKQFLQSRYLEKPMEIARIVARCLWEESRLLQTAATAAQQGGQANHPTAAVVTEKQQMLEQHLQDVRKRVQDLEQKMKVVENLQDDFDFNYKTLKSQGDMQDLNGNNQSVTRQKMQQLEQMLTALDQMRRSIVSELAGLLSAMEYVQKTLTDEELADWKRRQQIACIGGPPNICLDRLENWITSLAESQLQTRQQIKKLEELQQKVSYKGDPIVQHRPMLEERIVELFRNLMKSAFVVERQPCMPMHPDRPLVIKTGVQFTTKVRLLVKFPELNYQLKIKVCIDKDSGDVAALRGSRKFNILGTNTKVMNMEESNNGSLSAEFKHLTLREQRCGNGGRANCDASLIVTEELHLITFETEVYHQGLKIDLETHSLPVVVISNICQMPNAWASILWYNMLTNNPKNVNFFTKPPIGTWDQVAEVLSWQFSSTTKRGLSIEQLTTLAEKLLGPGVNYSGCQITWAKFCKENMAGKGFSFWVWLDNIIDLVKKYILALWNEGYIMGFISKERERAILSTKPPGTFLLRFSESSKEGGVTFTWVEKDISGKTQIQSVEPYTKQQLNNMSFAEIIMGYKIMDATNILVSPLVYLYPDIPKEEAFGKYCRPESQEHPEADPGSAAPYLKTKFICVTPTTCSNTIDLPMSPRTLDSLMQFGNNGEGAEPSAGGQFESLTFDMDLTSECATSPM

COc1c2n(cc(C(=O)Nc3cccc(-c4cn(-c5ccccc5Cl)nn4)c3)c1=O)C[C@@H]1OCC[C@@H](C)N1C2=O
active: inhibition [1] | Activity (BV-2 [2]) Dose-dependent-effect | inhibition (BV-2 [3]) | inhibition (BV-2 [4]) | Activity (BV-2 [9]) | inhibition [12] | inhibition (BV-2 [14]) | Activity (BV-2 [16]) Dose-dependent-effect | Activity (BV-2 [21]) Dose-dependent-effect | Activity (BV-2 [23]) Dose-dependent-effect | inhibition (BV-2 [25]) | Activity (BV-2 [27]) Dose-dependent-effect
4.45 µM: IC50 (BV-2 [15])
71%: level, % of control at 1 µM (BV-2 [26])
Non-toxic: Activity [5] | Activity [6] | Activity [7] | Activity [8] | Activity [10] | Activity [11] | Activity [13] | Activity [17] | Activity [18] | Activity [19] | Activity [20] | Activity [22] | Activity [24]
